The values that follow come from the Deep4Chem optical property database.

The nature of this series: photoluminescence quantum yield (fraction); solvent given as SMILES.

Regarding `COc1cc(N(c2ccccc2)c2ccccc2)ccc1C=C(C#N)C#N`, the photoluminescence quantum yield stood at 0.012 (in C1COCCO1); 0.005 (in CC#N); 0.013 (in CC(C)=O); 0.017 (in CCOC(C)=O); 0.009 (in CN(C)C=O); 0.006 (in CO). Besides, the photoluminescence quantum yield reads like this: (in Cc1ccccc1) 0.01; (in ClC(Cl)Cl) 0.023; (in ClCCl) 0.016.
With `C[Si]1(C)C(c2ccccc2)=Cc2ccccc21`, the photoluminescence quantum yield (in ClCCl) came out at 0.55.
Take `COc1cccc(C2=C(c3ccc(C(C)(C)C)cc3)C(c3ccc(C(C)(C)C)cc3)=[N+]3C2=C(c2ccccc2)c2c(-c4cccc(OC)c4)c(-c4ccc(C(C)(C)C)cc4)c(-c4ccc(C(C)(C)C)cc4)n2[B-]3(F)F)c1`: the photoluminescence quantum yield is, setting by setting: (in C1CCCCC1) 0.44; (in C1CCOC1) 0.45; (in CC#N) 0.38; (in Cc1ccccc1) 0.54; (in ClCCl) 0.58.
`CC(C)(C)c1cc(-c2c3cccc4c5cccc6c(-c7cc(C(C)(C)C)cc(C(C)(C)C)c7)c7cccc8c9cccc2c9c(c34)c(c65)c78)cc(C(C)(C)C)c1` had a photoluminescence quantum yield (in Cc1ccccc1) of 0.81.
For the setting “in ClCCl”, `OB1c2ccccc2Nc2ccccc21` yielded a photoluminescence quantum yield of 0.03.
In turn, `O=C([O-])c1c(Cl)c(Cl)c(Cl)c(Cl)c1-c1c2cc(Cl)c(=O)c(Cl)c-2oc2c(Cl)c(O)c(Cl)cc12` showed a photoluminescence quantum yield (in O) of 0.628.
Take `CCCCCCN1C(=O)c2cccc3cc(/N=C\c4ccc(N5CCOCC5)cc4)cc(c23)C1=O`: the photoluminescence quantum yield (in ClC(Cl)Cl) stood at 0.089.
The compound `CCCCC(CC)Cn1c2cc(C#N)ccc2c2cc(-c3ccc(N(c4ccccc4)c4ccccc4)cc3)c(C#N)cc21` (stereo not given) had a photoluminescence quantum yield (in ClCCl) of 0.31.
Same read-out and setting: then `COc1cccc(OC)c1-c1c2ccc(=[N+]3CCN(C(=O)OC(C)(C)C)CC3)cc-2oc2cc(N3CCN(C(=O)OC(C)(C)C)CC3)ccc12`, with 0.49.
Under “in Cc1ccccc1”, `BrCCCCCCCCCCCCOc1cc2ccc3cccc4ccc(c1)c2c34` registered a photoluminescence quantum yield of 0.59.
As for `C(=C\c1ccc(-n2c3ccccc3c3ccccc32)cc1)/c1ccc(-c2ccc(/C=C/c3ccc(-n4c5ccccc5c5ccccc54)cc3)cc2)cc1`, the photoluminescence quantum yield (in Cc1ccccc1) came out at 0.89 and the photoluminescence quantum yield (in c1ccc2c(c1)c1ccccc1n2-c1ccc(-c2ccc(-n3c4ccccc4c4ccccc43)cc2)cc1) worked out at 0.98.
Compound `CN(C)c1ccc(/C=C/c2ccnc(/C=C/c3ccc(N(C)C)cc3)n2)cc1` returned a photoluminescence quantum yield (in ClCCl) of 0.04.
In the case of `COc1ccc(/C=C/c2ccc(-c3ccc(C)cn3)nc2)cc1`, the photoluminescence quantum yield (in CC#N) turned out to be 0.28.
For the setting “in ClCCl”, `CC1=C(Br)C(C)=[N+]2C1=C(c1c(-c3ccccn3)nc3ccccn13)c1c(C)c(Br)c(C)n1[B-]2(F)F` gave a photoluminescence quantum yield of 0.0641.
Consider `F[B-]1(F)n2c(-c3cccs3)cc(-c3ccccc3)c2N=C2C(c3ccccc3)=CC(c3cccs3)=[N+]21`, for which the photoluminescence quantum yield came out at 0.46 (in CC#N) and 0.44 (in ClCCl).
On to `CC(C)(C)c1ccc(C(C)(C)C)c(N2C(=O)c3cccc4c(-c5ccc(-c6ccccc6)s5)ccc(c34)C2=O)c1`, for which the photoluminescence quantum yield reads like this: (in CO) 0.34; (in CS(C)=O) 0.43; (in Cc1ccccc1) 0.06.
On to `COCCOc1cc(C=O)c(OCCOC)cc1C=O`, for which the photoluminescence quantum yield was 0.11 (in CC(C)(C)O); 0.1 (in CC(C)CO); 0.1 (in CC(C)O); 0.17 (in CCCCO); 0.19 (in CCCO); 0.18 (in CCO). The photoluminescence quantum yield by setting is: (in CN(C)C=O) 0.03; (in CNC=O) 0.08; (in CO) 0.22; (in NC=O) 0.3; (in O) 0.54.
For the compound `C1=C(c2ccccc2)B(c2ccccc2)Nc2c1ccc1ccccc21`, the photoluminescence quantum yield (in C1CCCCC1) worked out at 0.51.
The compound `CC1=CC(/C=C/c2ccc(OCCCN=[N+]=[N-])cc2)=[N+]2C1=C(c1ccc(N(C)C)cc1)c1c(C)cc(C)n1[B-]2(F)F` came in with a photoluminescence quantum yield (in CO) of 0.59.
`CCN1C(=CC2=C([O-])C(=CC3=[N+](CC)c4ccccc4C3(C)C)C2=O)C(C)(C)c2ccccc21` yielded a photoluminescence quantum yield (in CC(C)O) of 0.09.
As to `Cc1ccc2nc3[nH]c(=O)[nH]c(=O)c3nc2c1C`, the photoluminescence quantum yield (in CC#N) was 0.041.
For the compound `Cc1cc(C)c(B2c3cc(C)ccc3N3c4ccc(C)cc4B(c4c(C)cc(C)cc4C)c4cc(C)cc2c43)c(C)c1`, the photoluminescence quantum yield worked out at 0.889 (in Cc1ccccc1-c1cccc(Oc2cc3c4c(c2)Oc2cc(-c5ccccc5C)ccc2B4c2ccc(-c4ccccc4C)cc2O3)c1) and 0.79 (in ClCCl).
`CC1(C)CCc2c(c3ccccc3c3nc4c(nc23)c2c(c3ccccc34)OC(C)(C)CC2)O1`: the photoluminescence quantum yield reads like this: (in C1CCCCC1) 0.33; (in C1COCCO1) 0.47; (in CC#N) 0.28; (in CC(C)O) 0.4; (in CCCCCC) 0.37; (in ClC(Cl)Cl) 0.42. The photoluminescence quantum yield (in c1ccccc1) worked out at 0.29.
For `C[N+]1=C(/C=C/C=C2/N(CCC[N+](C)(C)C)c3ccc(Br)cc3C2(C)C)C(C)(C)c2ccccc21`, where the note is “in CS(C)=O”, the photoluminescence quantum yield is 0.11.
For `Cc1cc(C)c(B2c3cc(C(C)(C)C)cc4ccc5ccc6cc(C(C)(C)C)cc2c6c5c34)c(C)c1`, the photoluminescence quantum yield (in C1CCCCC1) stood at 0.79.
In turn, `COc1ccc2cc(C#CC3=C4CCc5ccccc5C4=[O+][B-](F)(F)O3)ccc2c1` gave a photoluminescence quantum yield (in ClCCl) of 0.16.
In turn, `C[Si]1(C)c2ccccc2-c2cc3c(cc21)-c1ccccc1[Si]3(C)C` came in with a photoluminescence quantum yield (in ClCCl) of 0.45.
In turn, `COc1ccc(C2=[N+]3C(=Nc4c5c6cc(OC)c(OC)c(OC)c6c6cc(C(C)(C)C)ccc6c5c(-c5ccc(OC)cc5)n4[B-]3(F)F)c3c2c2ccc(C(C)(C)C)cc2c2c(OC)c(OC)c(OC)cc32)cc1` yielded a photoluminescence quantum yield (in Cc1ccccc1) of 0.35.
Compound `CCCCn1c2c(-c3ccc(N(c4ccccc4)c4ccccc4)cc3)cc(C#N)cc2c2cc(C#N)cc(-c3ccc(N(c4ccccc4)c4ccccc4)cc3)c21` gave a photoluminescence quantum yield (in ClCCl) of 0.6.
Consider `Oc1cc(-c2ccco2)ccc1-c1nc2ccccc2s1`, for which the photoluminescence quantum yield came to 0.137 (in CCO), 0.0812 (in ClCCl) and 0.1 (in O).
